{
  "source": "patent US5859027A",
  "about": "“Antimicrobial agent” (ChekTec Corporation, priority 1997, dated 1999)",
  "key": {"Fungal cells": {"tested_on": "Fungal cells", "experiment": "Disk diffusion assay for antimicrobial activity (Example 2), zone of growth inhibition", "format": "cell-based", "experimental": "Fungal cells were grown overnight from a single colony in 2-5 ml Sabouraud Dextrose Broth at 37° C. 1-5×10^6 were spread onto Sabouraud Dextrose Agar plates (Difco, Detroit, Mich.). Sterile 6 mm filter disks were evenly spaced with at least about 22 mm separation on the plates. To each disk, 100 μg of a compound to be tested was applied in 5-10 μl DMSO. On each plate, two disks containing 2.5 and 10 μg, respectively, of Amphotericin B (Sigma) and two disks containing 2.5 and 10 μg, respectively, of cerulenin (Sigma) were used as positive controls. A disk containing only DMSO served as the negative control. The plates were incubated at 37° C. for 24 hours and the zone of growth inhibition about each disk was visually examined and measured. Compound A and compound B typically produced clear zones of 8-12 mm diameter. Amphotericin B typically produced a clear zone of 8-10 mm diameter. Cerulenin typically produced a hazy zone of 20-25 mm diameter. A clear zone is indicative of fungicidal activity, while a hazy zone is indicative of fungistatic activity."}, "[1]": {"experiment": "Maximal tolerated dose in mice, IP administration", "conditions": "mouse, in vivo, read-out: maximal tolerated dose (maximum dose that caused no deaths within 72 hours)", "experimental": "(§1) In vivo activity was determined using a murine systemic model of candidiasis. Groups of 5 to 10 mice were inoculated IV with 1-2×10^7 cells of C. albicans strain ATCC 10231 (10 times the lethal dose). One hour after inoculation, the candidate antifungal compounds were delivered IP. 10 mg/kg of compound A was injected into each mouse of the compound A treatment group. Two separate treatment groups received 30 and 100 mg/kg, respectively, of compound B. Amphotericin B was injected into a positive control treatment group at 10 mg/kg. All compounds were delivered in phosphate-buffered saline (PBS) and one treatment group received PBS. Twice daily thereafter the mice were observed, the number of dead mice recorded, and the dead mice removed. After nine days, the total mortality over the period was determined.\nUsing the same methodology, it was determined that the maximal tolerated dose in these mice (i.e., the maximum dose that caused no deaths within 72 hours following IP administration) of compound B was in excess of 200 mg/kg. The mice treated with 2108B or Amphotericin B injected IP in […] of phosphate buffered saline, pH 7.4 had the following treatment profiles: […]"}, "[2]": {"tested_on": "Candida Albicans strain B311A", "experiment": "MIC assay (Example 1B)", "format": "cell-based", "conditions": "for MIC: Candida albicans", "experimental": "The fractions from the purification were tested for antifungal activity against C. albicans (strain B311A available from Dr. Paul Actor, Temple University and strains ATCC Nos. 10231 and 10261) and C. tropicalis (strain 13803). […] Prior to the assay for antifungal activity, the fungus to be tested for susceptibility was grown overnight from a single colony in 5 ml of medium at 30° C. This overnight culture was diluted 1:10 with fresh medium and grown at 37° C. for 4 hours. A volume of 5 μl of extracts, dissolved in DMSO, was added to each separate well in a series of 96-well plates. 4,000 fungal cells were then added to each plate in 95 μl of medium. The optical densities of the wells were measured and the plates incubated at 37° C. The optical densities were again measured after 24 and 48 hours. Minimum inhibitory concentrations (\"MICs\") for the extracts were determined using this procedure wherein the extracts were serially diluted in medium prior to mixing with the 4,000 fungal cells."}, "[3]": {"tested_on": "C. albicans strain ATCC 10231", "experiment": "Murine systemic model of candidiasis", "format": "in vivo, mice", "conditions": "for % Survival: after nine days", "experimental": "as §1"}},
  "data": [
    {"smiles": "C/C=C/C=C/C=C/C1=CC2=CC(=O)C(C)(OC(=O)CC(C)O)C(=O)C2=CO1", "note": "(stereo not shown) [Compound B]", "values": [
      {"measurement": "zone of inhibition at 100 µg/disc", "setting": "Fungal cells; 100 μg per 6 mm disk, 37° C., 24 hours, read-out: zone of growth inhibition, diameter", "result": "8 to 12", "unit": "mm"},
      {"measurement": "zone appearance (clear = fungicidal, hazy = fungistatic)", "setting": "Fungal cells; 100 μg per disk", "result": "clear zones"},
      {"measurement": "MTD at 72 h", "setting": "[1]", "result": "> 200", "unit": "mg/kg"},
      {"measurement": "MIC", "setting": "[2]; Sabouraud Dextrose Broth substituted for YNB medium", "result": 50, "unit": "µg/mL"},
      {"measurement": "MIC", "setting": "[2]; YNB medium", "result": 6.25, "unit": "µg/mL"},
      {"measurement": "activity in the MIC assay of Example 1B (in words)", "setting": "[2]; HPLC-purified material, strain not stated", "result": "retained activity"},
      {"measurement": "Deaths Each Day Post Inoculation, day 0", "setting": "[3]; 30 mg/kg IP", "result": 0},
      {"measurement": "Deaths Each Day Post Inoculation, day 1", "setting": "[3]; 30 mg/kg IP", "result": 2},
      {"measurement": "Deaths Each Day Post Inoculation, day 2", "setting": "[3]; 30 mg/kg IP", "result": 1},
      {"measurement": "Deaths Each Day Post Inoculation, day 3", "setting": "[3]; 30 mg/kg IP", "result": 0},
      {"measurement": "Deaths Each Day Post Inoculation, day 4", "setting": "[3]; 30 mg/kg IP", "result": 0},
      {"measurement": "Deaths Each Day Post Inoculation, day 5", "setting": "[3]; 30 mg/kg IP", "result": 0},
      {"measurement": "Deaths Each Day Post Inoculation, day 6", "setting": "[3]; 30 mg/kg IP", "result": 0},
      {"measurement": "Deaths Each Day Post Inoculation, day 7", "setting": "[3]; 30 mg/kg IP", "result": 0},
      {"measurement": "Deaths Each Day Post Inoculation, day 8", "setting": "[3]; 30 mg/kg IP", "result": 0},
      {"measurement": "Deaths Each Day Post Inoculation, day 9", "setting": "[3]; 30 mg/kg IP", "result": 0},
      {"measurement": "% Survival", "setting": "[3]; 30 mg/kg IP one hour after inoculation", "result": 40, "unit": "%"},
      {"measurement": "Deaths Each Day Post Inoculation, day 0", "setting": "[3]; 100 mg/kg IP", "result": 0},
      {"measurement": "Deaths Each Day Post Inoculation, day 1", "setting": "[3]; 100 mg/kg IP", "result": 2},
      {"measurement": "Deaths Each Day Post Inoculation, day 2", "setting": "[3]; 100 mg/kg IP", "result": 0},
      {"measurement": "Deaths Each Day Post Inoculation, day 3", "setting": "[3]; 100 mg/kg IP", "result": 0},
      {"measurement": "Deaths Each Day Post Inoculation, day 4", "setting": "[3]; 100 mg/kg IP", "result": 0},
      {"measurement": "Deaths Each Day Post Inoculation, day 5", "setting": "[3]; 100 mg/kg IP", "result": 0},
      {"measurement": "Deaths Each Day Post Inoculation, day 6", "setting": "[3]; 100 mg/kg IP", "result": 0},
      {"measurement": "Deaths Each Day Post Inoculation, day 7", "setting": "[3]; 100 mg/kg IP", "result": 0},
      {"measurement": "Deaths Each Day Post Inoculation, day 8", "setting": "[3]; 100 mg/kg IP", "result": 1},
      {"measurement": "Deaths Each Day Post Inoculation, day 9", "setting": "[3]; 100 mg/kg IP", "result": 0},
      {"measurement": "% Survival", "setting": "[3]; 100 mg/kg IP one hour after inoculation", "result": 40, "unit": "%"}
    ]}
  ]
}
